Drawing on patent US11008335B2, “Positive allosteric modulators of the muscarinic acetylcholine receptor M4” (Vanderbilt University, priority 2016, dated 2021), this text covers EC50 and Emax for 15 compounds.

Counter-ions that a name gives are not always drawn.

The assay concerns the target T1, Human M4 (Homo sapiens, UniProt P08173).
T1 sequence (P08173 1-479): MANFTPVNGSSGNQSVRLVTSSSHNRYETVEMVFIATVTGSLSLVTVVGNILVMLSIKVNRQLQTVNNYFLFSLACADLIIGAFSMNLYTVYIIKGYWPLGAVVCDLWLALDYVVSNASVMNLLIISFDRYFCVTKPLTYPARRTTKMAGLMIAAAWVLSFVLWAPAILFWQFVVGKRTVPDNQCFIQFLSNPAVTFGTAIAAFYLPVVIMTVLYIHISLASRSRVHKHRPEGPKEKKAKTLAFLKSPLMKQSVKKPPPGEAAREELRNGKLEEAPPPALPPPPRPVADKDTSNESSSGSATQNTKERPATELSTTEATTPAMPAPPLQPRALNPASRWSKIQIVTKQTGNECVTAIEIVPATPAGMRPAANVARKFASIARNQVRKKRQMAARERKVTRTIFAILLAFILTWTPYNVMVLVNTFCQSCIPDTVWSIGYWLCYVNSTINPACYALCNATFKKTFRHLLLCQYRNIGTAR
Nature of the assay: mAChR M4 cell-based functional assay (calcium flux, potentiation of EC20 acetylcholine response). Also on record: Emax: dose or concentration left out as unconfirmed. The note with it: for Emax: CHO-K1. (In general: A change in cytosolic calcium serves as a functional read-out for many receptors and channels.)

For orientation: EC50 means the concentration at which the effect is half-maximal. Usually Emax stands for the size of the effect at its maximum, as opposed to the concentration needed. Regarding `[2H]C([2H])(Nc1nncc2c1sc1nnc(C)c(C)c12)c1ccc(C(C)(C)O)cc1` [Compound 13, 2-(4-(((3,4-dimethylthieno[2,3-c:4,5-d′]dipyridazin-8-yl)amino)methyl-d2)phenyl)propan-2-ol], the EC50 worked out at 727 nM and the Emax turned out to be 91.9%.
For the compound `Cc1nnc2sc3c(N4CC[C@H](Oc5cccnc5)C4)nncc3c2c1C` [Compound 20, (S)-3,4-dimethyl-8-(3-(pyridin-3-yloxy)pyrrolidin-1-yl)thieno[2,3-c:4,5-d′]pyridazine], the EC50 was determined as 214 nM and the Emax was determined as 70.3%.
`Cc1nc2sc3c(N4CC5CC5C4)nncc3c2c(C)c1Cl` (stereo not drawn) [Compound 3, 8-(3-azabicyclo[3.1.0]hexan-3-yl)-3-chloro-2,4-dimethylpyrido[3′,2′:4,5]thieno[2,3-d]pyridazine]: the 50% effective concentration (EC50) is 480 nM and the Emax came out at 80.4%.
Regarding `COc1ccc(CNc2nncc3c2sc2nnc(C)c(C)c23)cc1F` [Compound 17, N-(3-fluoro-4-methoxybenzyl)-3,4-dimethylthieno[2,3-c:4,5-d′]dipyridazin-8-amine], the Emax was 86.7%.
With `Cc1nnc2sc3c(NCc4ccc(C(C)(C)CO)cc4F)nncc3c2c1C` [Compound 16, 2-(4-(((3,4-dimethylthieno[2,3-c:4,5-d′]dipyridazin-8-yl)amino)methyl)-3-fluorophenyl)-2-methylpropan-1-ol], the EC50 came out at 779 nM and the Emax is 77.4%.
For the compound `COCCCNc1nncc2c1sc1nc(C)c(Cl)c(C)c12` [Compound 7, 3-chloro-N-(3-methoxypropyl)-2,4-dimethylpyrido[3′,2′:4,5]thieno[2,3-d]pyridazin-8-amine hydrochloride], the concentration for a half-maximal effect (EC50) is 340 nM and the Emax turned out to be 70%.
The like results for `Cc1nc2sc3c(NC4CC4)nncc3c2c(C)c1Cl` [Compound 11, 3-chloro-N-cyclopropyl-2,4-dimethylpyrido[3′,2′:4,5]thieno[2,3-d]pyridazin-8-amine hydrochloride] were, in that order, 81 nM and 100%.
The like results for `Cc1nnc2sc3c(NCc4ccc(-n5cccn5)cc4)nncc3c2c1C` [Compound 18, N-(4-(1H-pyrazol-1-yl)benzyl)-3,4-dimethylthieno[2,3-c:4,5-d′]dipyridazin-8-amine] were, in that order, 560 nM and 72.7%.
On the same counts, the results for `COc1ccc(CNc2nncc3c2sc2nc(C)c(Cl)c(C)c23)cc1F` [Compound 5, 3-chloro-N-(3-fluoro-4-methoxybenzyl)-2,4-dimethylpyrido[3′,2′:4,5]thieno[2,3-d]pyridazin-8-amine] are 1310 nM and 69.4%.
Regarding `Cc1nnc2sc3c(NCc4ccc(C(C)(C)O)cc4)nncc3c2c1C` [Compound 12, 2-(4-(((3,4-dimethylthieno[2,3-c:4,5-d′]dipyridazin-8-yl)amino)methyl)phenyl)propan-2-ol], the Emax was 99.4%.
Take `Cc1nnc2sc3c(N4CC(Oc5cccnc5)C4)nncc3c2c1C` [Compound 19, 3,4-dimethyl-8-(3-(pyridin-3-yloxy)azetidin-1-yl)thieno[2,3-c:4,5-d′]dipyridazine]: the EC50 was found to be 2110 nM and the Emax was determined as 51.3%.
On the same counts, the results for `Cc1nc2sc3c(NCc4ccc(OC(F)F)cc4)nncc3c2c(C)c1Cl` [Compound 4, 3-chloro-N-(4-(difluoromethoxy)benzyl)-2,4-dimethylpyrido[3′,2′:4,5]thieno[2,3-d]pyridazin-8-amine] are 540 nM and 41%.
The like results for `[2H]C([2H])([2H])C(O)(c1ccc(CNc2nncc3c2sc2nnc(C)c(C)c23)cc1)C([2H])([2H])[2H]` [Compound 14, 2-(4-(((3,4-dimethylthieno[2,3-c:4,5-d′]dipyridazin-8-yl)amino)methyl)phenyl)propan-1,1,1,3,3,3-d6-2-ol] were, in that order, 746 nM and 89.4%.
The like results for `Cc1nc2sc3c(N4CCCC4)nnc(C)c3c2c(C)c1Cl` [Compound 21, 3-Chloro-2,4,5-trimethyl-8-(pyrrolidin-1-yl)pyrido[3′,2′:4,5]thieno[2,3-d]pyridazine] were, in that order, 1630 nM and 50.4%.
As to `Cc1nnc2sc3c(N4CCCC4)nncc3c2c1C` [Compound 15, 3,4-dimethyl-8-(pyrrolidin-1-yl)thieno[2,3-c:4,5-d′]dipyridazine], the Emax was 95.8%.
